The molecules below were run against T1, TrkB (Homo sapiens, UniProt Q16620) (assay: Trk B Fluorescence Polarization Kinase Assay). Settings: uncertainty ±10%.
T1 construct: purchased Upstate 14-507M
T1 sequence (Q16620 32-822): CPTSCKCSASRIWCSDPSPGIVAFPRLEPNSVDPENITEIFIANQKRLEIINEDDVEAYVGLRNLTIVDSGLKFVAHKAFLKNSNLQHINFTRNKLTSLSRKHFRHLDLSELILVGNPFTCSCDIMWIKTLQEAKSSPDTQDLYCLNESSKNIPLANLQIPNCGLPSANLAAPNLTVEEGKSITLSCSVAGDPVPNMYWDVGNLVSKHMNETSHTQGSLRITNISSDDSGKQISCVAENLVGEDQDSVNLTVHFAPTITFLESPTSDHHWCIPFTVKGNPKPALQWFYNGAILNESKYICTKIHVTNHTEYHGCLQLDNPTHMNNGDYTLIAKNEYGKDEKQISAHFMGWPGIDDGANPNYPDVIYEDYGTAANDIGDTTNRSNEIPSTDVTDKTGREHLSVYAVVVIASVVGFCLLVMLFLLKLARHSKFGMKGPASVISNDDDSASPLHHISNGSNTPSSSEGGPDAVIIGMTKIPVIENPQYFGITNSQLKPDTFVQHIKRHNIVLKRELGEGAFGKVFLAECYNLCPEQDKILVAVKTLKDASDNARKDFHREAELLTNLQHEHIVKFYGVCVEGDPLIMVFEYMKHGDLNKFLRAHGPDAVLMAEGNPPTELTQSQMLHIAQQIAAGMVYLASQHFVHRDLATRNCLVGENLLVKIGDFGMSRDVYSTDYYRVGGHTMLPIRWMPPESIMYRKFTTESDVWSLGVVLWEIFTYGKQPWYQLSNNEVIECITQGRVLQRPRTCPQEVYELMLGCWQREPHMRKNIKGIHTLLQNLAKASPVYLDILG
Type: biochemical
Method: Trk B Fluorescence Polarization Kinase Assay (TrkB IC50 Data)
The compounds of the present invention are also specific inhibitors of TrkB. Selection of preferred compounds of Formula I for use as TrkB inhibitors was performed in the following manner. The TrkB assay utilized the fluorescein-labeled phosphopeptide and the anti-phosphotyrosine antibody included in the Panvera Phospho-Tyrosine Kinase Kit (Green) supplied by Invitrogen. When TrkB phosphorylated poly Glu4Tyr, the fluorescein-labeled phosphopeptide was displaced from the anti-phosphotyrosine antibody by the phosphorylated poly Glu4Tyr, thus decreasing the FP value. The TrkB kinase reaction was incubated at room temperature for 30 minutes under the following conditions: 50 nM TrkB (Upstate, catalog # 14-507M), 20 ug/mL poly Glu4Tyr, 150 uM ATP, 5 mM MgCl2, 1% compound in DMSO. The kinase reaction was stopped with the addition of EDTA. The fluorescein-labeled phosphopeptide and the anti-phosphotyrosine antibody were added and incubated for 30 minutes at room temperature. Data points were an average of triplicate samples. Inhibition and IC50 data analysis were done with GraphPad Prism using a non-linear regression fit with a multiparamater, sigmoidal dose-response (variable slope) equation.
`COc1cc2ncnc(C3CCN(C(=O)Nc4ccc(C5CCNCC5)cc4)CC3)c2cc1OC` [Compound 64, 4-(6,7-Dimethoxy-quinazolin-4-yl)-piperidine-1-carboxylic acid (4-piperidin-4-yl-phenyl)-amide] was tested, and the IC50 was 37.8 µM. Molecule `CC(C)Oc1ccc(NC(=O)N2CCC(c3ncnc4cc(OCCCNS(C)(=O)=O)ccc34)CC2)cc1` [Compound 65, 4-[7-(3-Methanesulfonylamino-propoxy)-quinazolin-4-yl]-piperidine-1-carboxylic acid (4-isopropoxy-phenyl)-amide] has an IC50 of 0.5 µM. Molecule `CS(=O)(=O)NCCCOc1ccc2c(C3CCN(C(=O)Nc4ccc(N5CCOCC5)cc4)CC3)ncnc2c1` [Compound 66, 4-[7-(3-Methanesulfonylamino-propoxy)-quinazolin-4-yl]-piperidine-1-carboxylic acid (4-morpholin-4-yl-phenyl)-amide] has an IC50 greater than 42 µM. For `CC(C)Oc1ccc(NC(=O)N2CCC(c3ncnc4cc(OCCCN5CCCC5=O)ccc34)CC2)cc1` [Compound 67, 4-{7-[3-(2-Oxo-pyrrolidin-1-yl)-propoxy]-quinazolin-4-yl}-piperidine-1-carboxylic acid (4-isopropoxy-phenyl)-amide], the IC50 was 0.6 µM. `COc1cc2ncnc(C3CCN(C(=O)Nc4ccc(OC5CCCC5)nc4)CC3)c2cc1OC` [Compound 69, 4-(6,7-Dimethoxy-quinazolin-4-yl)-piperidine-1-carboxylic acid (6-cyclopentyloxy-pyridin-3-yl)-amide] gave an IC50 of 0.15 µM. Work on `COc1cc2ncnc(C3CCN(C(=O)Nc4ccc(N5CCCCCC5)cc4)CC3)c2cc1OC` [Compound 70, 4-(6,7-Dimethoxy-quinazolin-4-yl)-piperidine-1-carboxylic acid (4-azepan-1-yl-phenyl)-amide] yielded an IC50 of 2.7 µM. In the case of `COc1cc2ncnc(C3CCN(C(=O)Nc4ccc(N5CCCCC5)c(Cl)c4)CC3)c2cc1OC` [Compound 71, 4-(6,7-Dimethoxy-quinazolin-4-yl)-piperidine-1-carboxylic acid (3-chloro-4-piperidin-1-yl-phenyl)-amide], the IC50 is reported as 6.1 µM. With `O=C(Nc1ccc(N2CCOCC2)cc1)N1CCC(c2ncnc3cc(OCCCN4CCCCC4)ccc23)CC1` [Compound 75] the IC50 was greater than 20 µM. With `O=C(Nc1ccc(N2CCOCC2)cc1)N1CCC(c2ncnc3cc(OCCCO)ccc23)CC1` [Compound 77, 4-[7-(3-Hydroxy-propoxy)-quinazolin-4-yl]-piperidine-1-carboxylic acid (4-morpholin-4-yl-phenyl)-amide] the IC50 was greater than 20 µM. `COCCCOc1ccc2c(C3CCN(C(=O)Nc4ccc(N5CCOCC5)cc4)CC3)ncnc2c1` [Compound 78, 4-[7-(3-Methoxy-propoxy)-quinazolin-4-yl]-piperidine-1-carboxylic acid (4-morpholin-4-yl-phenyl)-amide] gave an IC50 of 18.4 µM. For `CC(C)Oc1ccc(NC(=O)N2CCC(c3ncnc4cc(OCCN5CCOC5=O)ccc34)CC2)cc1` [Compound 79, 4-{7-[2-(2-Oxo-oxazolidin-3-yl)-ethoxy]-quinazolin-4-yl}-piperidine-1-carboxylic acid (4-isopropoxy-phenyl)-amide], the IC50 was 0.3 µM. For `CN1CCN(CCCOc2ccc3c(C4CCN(C(=O)Nc5ccc(N6CCOCC6)c(F)c5)CC4)ncnc3c2)CC1` [Compound 81, 4-{7-[3-(4-Methyl-piperazin-1-yl)-propoxy]-quinazolin-4-yl}-piperidine-1-carboxylic acid (3-fluoro-4-morpholin-4-yl-phenyl)-amide], the IC50 was greater than 20 µM. In the case of `CN1CCN(CCCOc2ccc3c(C4CCN(C(=O)Nc5ccc(OC6CCCC6)nc5)CC4)ncnc3c2)CC1` [Compound 82, 4-{7-[3-(4-Methyl-piperazin-1-yl)-propoxy]-quinazolin-4-yl}-piperidine-1-carboxylic acid (6-cyclopentyloxy-pyridin-3-yl)-amide], the IC50 is reported as 0.4 µM. Work on `O=C1CCCN1CCOc1ccc2c(C3CCN(C(=O)Nc4cnc(N5CCCC5)nc4)CC3)ncnc2c1` [Compound 84, 4-{7-[2-(2-Oxo-pyrrolidin-1-yl)-ethoxy]-quinazolin-4-yl}-piperidine-1-carboxylic acid (2-pyrrolidin-1-yl-pyrimidin-5-yl)-amide] yielded an IC50 of 0.8 µM.
